Data on 22 molecules can be found in patent US11807644B2 (PMV Pharmaceuticals, Inc., priority 2020, dated 2023).

One assay has as its target T1, recombinant His-tag Y220C p53 DBD protein (Homo sapiens, UniProt P04637, Y220C).
T1 construct: recombinant His-tag Y220C p53 DBD protein (amino acids #˜94-312)
Put plainly: In vitro DNA binding activity assay (TR-FRET): binding of His-tag Y220C p53 DBD to biotin-labeled consensus DNA. It counts as biochemical. As to conditions: SC150 = concentration to increase DNA binding by […], His-tag Y220C p53 DBD, biotin-labeled consensus DNA. For orientation: In TR-FRET formats the signal depends on donor and acceptor labels being close together.
On to `CN1CC[C@H](Nc2cccc3c2cc(-c2nnc(CNC(=O)C4CC4)s2)n3CC(F)(F)F)[C@H](F)C1` [Compound 48B, N-{[5-(4-{[(3R,4S)-3-fluoro-1-methylpiperidin-4-yl]amino}-1-(2,2,2-trifluoroethyl)-1H-indol-2-yl)-1,3,4-thiadiazol-2-yl]methyl}cyclopropanecarboxamide], for which the “Y220C SC150 (μM)” value is recorded as “* (* = 0 μM ≤ SC150 < 0.1 μM)”.

In the case of `COC1CCCC1n1cc(C(=O)NCc2nc(-c3cc4c(N[C@@H]5CCN(C)C[C@@H]5F)cccc4n3CC(F)(F)F)no2)cn1` (stereo in doubt) [Compound 348B, N-{[3-(4-{[(3S,4R)-3-fluoro-1-methylpiperidin-4-yl]amino}-1-(2,2,2-trifluoroethyl)-1H-indol-2-yl)-1,2,4-oxadiazol-5-yl]methyl}-1-[(1R,2R)-2-methoxycyclopentyl]-1H-pyrazole-4-carboxamide], the “Y220C SC150 (μM)” value is listed as “* (* = 0 μM ≤ SC150 < 0.1 μM)”.

As for `COCC1(n2ccc(C(=O)NCc3nc(-c4cc5c(N[C@H]6CCN(C)C[C@H]6C)cccc5n4CC(F)(F)F)no3)c2)CC1` [Compound 505B, N-{[3-(4-{[(3R,4S)-1,3-dimethylpiperidin-4-yl]amino}-1-(2,2,2-trifluoroethyl)-1H-indol-2-yl)-1,2,4-oxadiazol-5-yl]methyl}-1-[1-(methoxymethyl)cyclopropyl]-1H-pyrrole-3-carboxamide], the “Y220C SC150 (μM)” value was “* (* = 0 μM ≤ SC150 < 0.1 μM)”.

Consider `CN1CC[C@@H](Nc2cccc3c2cc(-c2noc(CNC(=O)[C@@H]4C[C@H]4CN4CCOCC4)n2)n3CC(F)(F)F)[C@@H](F)C1` [Compound 245B, (1R,2R)-N-{[3-(4-{[(3S,4R)-3-fluoro-1-methylpiperidin-4-yl]amino}-1-(2,2,2-trifluoroethyl)-1H-indol-2-yl)-1,2,4-oxadiazol-5-yl]methyl}-2-[(morpholin-4-yl)methyl]cyclopropane-1-carboxamide], for which the “Y220C SC150 (μM)” value was “* (* = 0 μM ≤ SC150 < 0.1 μM)”.

For `CN(C)CC1(n2ccc(C(=O)NCc3nc(-c4cc5c(N[C@@H]6CCN(C)C[C@@H]6F)cccc5n4CC(F)(F)F)no3)c2)CC1` [Compound 482B, 1-{1-[(dimethylamino)methyl]cyclopropyl}-N-{[3-(4-{[(3S,4R)-3-fluoro-1-methylpiperidin-4-yl]amino}-1-(2,2,2-trifluoroethyl)-1H-indol-2-yl)-1,2,4-oxadiazol-5-yl]methyl}-1H-pyrrole-3-carboxamide], the “Y220C SC150 (μM)” value is given as “* (* = 0 μM ≤ SC150 < 0.1 μM)”.

As to `CN1CCC(Nc2cccc3c2cc(-c2noc(CNC(=O)Nc4ccccc4)n2)n3CC(F)(F)F)CC1` [Compound 153B, 3-[(3-{4-[(1-methylpiperidin-4-yl)amino]-1-(2,2,2-trifluoroethyl)-1H-indol-2-yl}-1,2,4-oxadiazol-5-yl)methyl]-1-phenylurea], the “Y220C SC150 (μM)” value was “* (* = 0 μM ≤ SC150 < 0.1 μM)”.

With `CN1CC[C@@H](Nc2cccc3c2cc(-c2noc(CNC(=O)[C@@H]4C[C@H]4CN4CCCC4)n2)n3CC(F)(F)F)[C@@H](F)C1` [Compound 265B, (1R,2R)-N-{[3-(4-{[(3S,4R)-3-fluoro-1-methylpiperidin-4-yl]amino}-1-(2,2,2-trifluoroethyl)-1H-indol-2-yl)-1,2,4-oxadiazol-5-yl]methyl}-2-[(pyrrolidin-1-yl)methyl]cyclopropane-1-carboxamide], the “Y220C SC150 (μM)” value is “* (* = 0 μM ≤ SC150 < 0.1 μM)”.

Consider `CCN1CC[C@@H](Nc2cccc3c2cc(-c2noc(CNC(=O)c4ccn(C(C)(C)C)c4)n2)n3CC(F)(F)F)[C@@H](F)C1` [Compound 298B, 1-tert-butyl-N-{[3-(4-{[(3S,4R)-1-ethyl-3-fluoropiperidin-4-yl]amino}-1-(2,2,2-trifluoroethyl)-1H-indol-2-yl)-1,2,4-oxadiazol-5-yl]methyl}-1H-pyrrole-3-carboxamide], for which the “Y220C SC150 (μM)” value is on record as “* (* = 0 μM ≤ SC150 < 0.1 μM)”.

With `CNCc1nnc(-c2cc3c(N[C@@H]4CCN(C)C[C@@H]4F)cccc3n2CC(F)(F)F)s1` (racemic) [Compound 43B, (+/−)-N-[(3R,4S)-3-fluoro-1-methylpiperidin-4-yl]-2-{5-[(methylamino)methyl]-1,3,4-thiadiazol-2-yl}-1-(2,2,2-trifluoroethyl)-1H-indol-4-amine], the “Y220C SC150 (μM)” value is recorded as “**** (**** = 1 μM ≤ SC150 < 10 μM)”.

Consider `CC(C)c1ncc(C(=O)NCc2nc(-c3cc4c(N[C@@H]5CCN(C)C[C@@H]5F)cccc4n3CC(F)(F)F)no2)s1` [Compound 431B, N-{[3-(4-{[(3S,4R)-3-fluoro-1-methylpiperidin-4-yl]amino}-1-(2,2,2-trifluoroethyl)-1H-indol-2-yl)-1,2,4-oxadiazol-5-yl]methyl}-2-(propan-2-yl)-1,3-thiazole-5-carboxamide], for which the “Y220C SC150 (μM)” value is recorded as “* (* = 0 μM ≤ SC150 < 0.1 μM)”.

In the case of `CN1CC[C@H](Nc2cccc3c2cc(-c2nnc(CNCC4CC4)o2)n3CC(F)(F)F)[C@H](F)C1` (racemic) [Compound 121B, (+/−)-2-(5-{[(cyclopropylmethyl)amino]methyl}-1,3,4-oxadiazol-2-yl)-N-[(3R,4S)-3-fluoro-1-methylpiperidin-4-yl]-1-(2,2,2-trifluoroethyl)-1H-indol-4-amine], the “Y220C SC150 (μM)” value is reported as “**** (**** = 1 μM ≤ SC150 < 10 μM)”.

As for `COc1ccccc1C(=O)NCc1nnc(-c2cc3c(NC4CCN(C)CC4)cccc3n2CC(F)(F)F)s1` [Compound 66B, 2-methoxy-N-[(5-{4-[(1-methylpiperidin-4-yl)amino]-1-(2,2,2-trifluoroethyl)-1H-indol-2-yl}-1,3,4-thiadiazol-2-yl)methyl]benzamide], the “Y220C SC150 (μM)” value was “* (* = 0 μM ≤ SC150 < 0.1 μM)”.

With `CN1CC[C@@H](Nc2cccc3c2cc(-c2noc(CNC(=O)c4cn(C(C)(C)CF)cn4)n2)n3CC(F)(F)F)[C@@H](F)C1` [Compound 342B, N-{[3-(4-{[(3S,4R)-3-fluoro-1-methylpiperidin-4-yl]amino}-1-(2,2,2-trifluoroethyl)-1H-indol-2-yl)-1,2,4-oxadiazol-5-yl]methyl}-1-(1-fluoro-2-methylpropan-2-yl)-1H-imidazole-4-carboxamide], the “Y220C SC150 (μM)” value is “* (* = 0 μM ≤ SC150 < 0.1 μM)”.

In the case of `CN1CC[C@@H](Nc2cccc3c2cc(-c2noc(CNC(=O)c4ccn(C5(C)CC5)c4)n2)n3CC(F)(F)F)[C@@H](F)C1` [Compound 428B, N-{[3-(4-{[(3S,4R)-3-fluoro-1-methylpiperidin-4-yl]amino}-1-(2,2,2-trifluoroethyl)-1H-indol-2-yl)-1,2,4-oxadiazol-5-yl]methyl}-1-(1-methylcyclopropyl)-1H-pyrrole-3-carboxamide], the “Y220C SC150 (μM)” value is “* (* = 0 μM ≤ SC150 < 0.1 μM)”.

`CN1CC[C@@H](Nc2cccc3c2cc(-c2noc(CNC(=O)c4cccs4)n2)n3CC(F)(F)F)[C@@H](F)C1` (racemic) [Compound 175B, (+/−)-N-{[3-(4-{[(3R,4S)-3-fluoro-1-methylpiperidin-4-yl]amino}-1-(2,2,2-trifluoroethyl)-1H-indol-2-yl)-1,2,4-oxadiazol-5-yl]methyl}thiophene-2-carboxamide]: the “Y220C SC150 (μM)” value is listed as “* (* = 0 μM ≤ SC150 < 0.1 μM)”.

With `Cn1ccc(C(=O)NCc2nc(-c3cc4c(N[C@@H]5CCN(C(C)(C)C)C[C@@H]5F)cccc4n3CC(F)(F)F)no2)c1` [Compound 397B, N-{[3-(4-{[(3S,4R)-1-tert-butyl-3-fluoropiperidin-4-yl]amino}-1-(2,2,2-trifluoroethyl)-1H-indol-2-yl)-1,2,4-oxadiazol-5-yl]methyl}-1-methyl-1H-pyrrole-3-carboxamide], the “Y220C SC150 (μM)” value is listed as “* (* = 0 μM ≤ SC150 < 0.1 μM)”.

As to `COc1cc(S(C)(=O)=O)ccc1NCc1nnc(-c2cc3c(N[C@H]4CCN(C)C[C@H]4F)cccc3n2CC(F)(F)F)s1` (racemic) [Compound 27B, (+/−)-N-[(3R,4S)-3-fluoro-1-methylpiperidin-4-yl]-2-(5-{[(4-methanesulfonyl-2-methoxyphenyl)amino]methyl}-1,3,4-thiadiazol-2-yl)-1-(2,2,2-trifluoroethyl)-1H-indol-4-amine], the “Y220C SC150 (μM)” value is given as “** (** = 0.1 μM ≤ SC150 < 0.5 μM)”.

Turning to `CN1CCC(Nc2cccc3c2cc(-c2nnc(CNC(=O)c4cn[nH]c4)s2)n3CC(F)(F)F)CC1` [Compound 72B, N-[(5-{4-[(1-methylpiperidin-4-yl)amino]-1-(2,2,2-trifluoroethyl)-1H-indol-2-yl}-1,3,4-thiadiazol-2-yl)methyl]-1H-pyrazole-4-carboxamide], the “Y220C SC150 (μM)” value is “* (* = 0 μM ≤ SC150 < 0.1 μM)”.

As to `CCN1CC[C@@H](Nc2cccc3c2cc(-c2noc(CNC(=O)c4ccn(C5CCC(F)(F)C5)c4)n2)n3CC(F)(F)F)[C@@H](F)C1` (stereo partly drawn) [Compound 346B, 1-(3,3-difluorocyclopentyl)-N-{[3-(4-{[(3S,4R)-1-ethyl-3-fluoropiperidin-4-yl]amino}-1-(2,2,2-trifluoroethyl)-1H-indol-2-yl)-1,2,4-oxadiazol-5-yl]methyl}-1H-pyrrole-3-carboxamide], the “Y220C SC150 (μM)” value is recorded as “* (* = 0 μM ≤ SC150 < 0.1 μM)”.

In the case of `CN1CC[C@@H](Nc2cccc3c2cc(-c2noc(CNC(=O)c4ccn(C5CCCC5)c4)n2)n3CC(F)(F)F)[C@@H](F)C1` [Compound 319B, 1-cyclopentyl-N-{[3-(4-{[(3S,4R)-3-fluoro-1-methylpiperidin-4-yl]amino}-1-(2,2,2-trifluoroethyl)-1H-indol-2-yl)-1,2,4-oxadiazol-5-yl]methyl}-1H-pyrrole-3-carboxamide], the “Y220C SC150 (μM)” value is listed as “* (* = 0 μM ≤ SC150 < 0.1 μM)”.

For the molecule `CN1CCC(Nc2cccc3c2cc(-c2nnc(CNC(=O)c4ccc5cn[nH]c5c4)s2)n3CC(F)(F)F)CC1` [Compound 69B, N-[(5-{4-[(1-methylpiperidin-4-yl)amino]-1-(2,2,2-trifluoroethyl)-1H-indol-2-yl}-1,3,4-thiadiazol-2-yl)methyl]-1H-indazole-6-carboxamide], the “Y220C SC150 (μM)” value is reported as “* (* = 0 μM ≤ SC150 < 0.1 μM)”.

Still in this assay, the particulars now being: concentration to increase DNA binding by […], incubated at either 27° C. or 29° C. for 60 min.
Consider `CS(=O)(=O)c1ccc(NCc2ccc(-c3cc4c(NC5CCS(=O)(=O)CC5)cccc4n3CC(F)(F)F)cc2)cn1` [Compound 29A, 4-{[2-(4-{[(6-methanesulfonylpyridin-3-yl)amino]methyl}phenyl)-1-(2,2,2-trifluoroethyl)-1H-indol-4-yl]amino}-1λ^6-thiane-1,1-dione], for which the “SC150 (μM)” value was “+ (+ = 0 μM ≤ SC150 < 2 μM)”.
